Assay results as given in PubChem BioAssay AID504473 (NMMLSC, 2011).
Calls of active or inactive are those of the source.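 How the source made its calls: active means GFP ratio to DMSO above 1.5 or below 0.66; inactive means the rest.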

Key:
Assay in all cases: expression changes of rapamycin-responsive GFP fusion proteins, S. cerevisiae, GFP-tagged clone panel, flow cytometry (AID 504473);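 further: median GFP fluorescence of the cells measured by high-throughput flow cytometry; test concentration not given here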
[1] = biological target: General amino acid permease AGP1 (Saccharomyces cerevisiae S288c) (UniProt P25376); settings: S. cerevisiae GFP-tagged strains, 3 h, YCL025C
Chain of General amino acid permease AGP1 (Saccharomyces cerevisiae S288c) (P25376 whole entry, looked up): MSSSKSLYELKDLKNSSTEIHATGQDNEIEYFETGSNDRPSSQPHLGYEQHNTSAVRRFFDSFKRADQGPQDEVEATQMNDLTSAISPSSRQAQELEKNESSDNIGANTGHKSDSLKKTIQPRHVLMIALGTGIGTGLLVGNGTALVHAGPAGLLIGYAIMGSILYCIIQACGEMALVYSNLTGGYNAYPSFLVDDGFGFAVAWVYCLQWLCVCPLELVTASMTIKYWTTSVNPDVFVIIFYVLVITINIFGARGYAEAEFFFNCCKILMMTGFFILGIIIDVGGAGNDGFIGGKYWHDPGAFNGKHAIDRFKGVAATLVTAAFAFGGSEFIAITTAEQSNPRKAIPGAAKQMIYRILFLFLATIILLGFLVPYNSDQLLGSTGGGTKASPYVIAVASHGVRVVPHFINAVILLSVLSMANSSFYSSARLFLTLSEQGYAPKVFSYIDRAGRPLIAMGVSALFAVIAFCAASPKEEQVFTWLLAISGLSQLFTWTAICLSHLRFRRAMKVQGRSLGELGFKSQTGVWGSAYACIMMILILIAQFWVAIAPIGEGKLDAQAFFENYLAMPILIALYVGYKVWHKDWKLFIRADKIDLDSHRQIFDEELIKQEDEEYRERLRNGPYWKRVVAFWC

[2] = test system: YAL060W; settings: S. cerevisiae GFP-tagged strains, 3 h
[3] = test system: YAL061W; settings: S. cerevisiae GFP-tagged strains, 3 h
[4] = test system: YBL087C; settings: S. cerevisiae GFP-tagged strains, 3 h
[5] = test system: YBR072W; settings: S. cerevisiae GFP-tagged strains, 3 h
[6] = test system: YBR139W; settings: S. cerevisiae GFP-tagged strains, 3 h
[7] = test system: YBR208C; settings: S. cerevisiae GFP-tagged strains, 3 h
[8] = test system: YBR248C; settings: S. cerevisiae GFP-tagged strains, 3 h
[9] = test system: YCL064C; settings: S. cerevisiae GFP-tagged strains, 3 h
[10] = test system: YCR002C; settings: S. cerevisiae GFP-tagged strains, 3 h
[11] = test system: YCR005C; settings: S. cerevisiae GFP-tagged strains, 3 h
[12] = test system: YDL130W; settings: S. cerevisiae GFP-tagged strains, 3 h
[13] = test system: YDL204W; settings: S. cerevisiae GFP-tagged strains, 3 h
[14] = test system: YDL205C; settings: S. cerevisiae GFP-tagged strains, 3 h
[15] = test system: YDR070C; settings: S. cerevisiae GFP-tagged strains, 3 h
[16] = test system: YDR382W; settings: S. cerevisiae GFP-tagged strains, 3 h
[17] = test system: YDR399W; settings: S. cerevisiae GFP-tagged strains, 3 h
[18] = test system: YDR453C; settings: S. cerevisiae GFP-tagged strains, 3 h
[19] = test system: YEL007W; settings: S. cerevisiae GFP-tagged strains, 3 h
[20] = test system: YEL060C; settings: S. cerevisiae GFP-tagged strains, 3 h
[21] = test system: YEL063C; settings: S. cerevisiae GFP-tagged strains, 3 h
[22] = test system: YEL071W; settings: S. cerevisiae GFP-tagged strains, 3 h
[23] = test system: YER081W; settings: S. cerevisiae GFP-tagged strains, 3 h
[24] = test system: YER117W; settings: S. cerevisiae GFP-tagged strains, 3 h
[25] = test system: YER151C; settings: S. cerevisiae GFP-tagged strains, 3 h
[26] = test system: YER156C; settings: S. cerevisiae GFP-tagged strains, 3 h
[27] = test system: YFR031C-A; settings: S. cerevisiae GFP-tagged strains, 3 h
[28] = test system: YFR053C; settings: S. cerevisiae GFP-tagged strains, 3 h
[29] = test system: YGL036W; settings: S. cerevisiae GFP-tagged strains, 3 h
[30] = test system: YGL062W; settings: S. cerevisiae GFP-tagged strains, 3 h
[31] = test system: YGL135W; settings: S. cerevisiae GFP-tagged strains, 3 h
[32] = test system: YGL147C; settings: S. cerevisiae GFP-tagged strains, 3 h
[33] = test system: YGR019W; settings: S. cerevisiae GFP-tagged strains, 3 h
[34] = test system: YGR034W; settings: S. cerevisiae GFP-tagged strains, 3 h
[35] = test system: YGR088W; settings: S. cerevisiae GFP-tagged strains, 3 h
[36] = test system: YGR121C; settings: S. cerevisiae GFP-tagged strains, 3 h
[37] = test system: YHL021C; settings: S. cerevisiae GFP-tagged strains, 3 h
[38] = test system: YHR018C; settings: S. cerevisiae GFP-tagged strains, 3 h
[39] = test system: YHR087W; settings: S. cerevisiae GFP-tagged strains, 3 h
[40] = test system: YHR141C; settings: S. cerevisiae GFP-tagged strains, 3 h
[41] = test system: YHR144C; settings: S. cerevisiae GFP-tagged strains, 3 h
[42] = test system: YHR203C; settings: S. cerevisiae GFP-tagged strains, 3 h
[43] = test system: YIL043C; settings: S. cerevisiae GFP-tagged strains, 3 h
[44] = test system: YIL051C; settings: S. cerevisiae GFP-tagged strains, 3 h
[45] = test system: YIL052C; settings: S. cerevisiae GFP-tagged strains, 3 h
[46] = test system: YIL066C; settings: S. cerevisiae GFP-tagged strains, 3 h
[47] = test system: YIL069C; settings: S. cerevisiae GFP-tagged strains, 3 h
[48] = test system: YJL056C; settings: S. cerevisiae GFP-tagged strains, 3 h
[49] = test system: YJL144W; settings: S. cerevisiae GFP-tagged strains, 3 h
[50] = test system: YJR148W; settings: S. cerevisiae GFP-tagged strains, 3 h
[51] = test system: YKL086W; settings: S. cerevisiae GFP-tagged strains, 3 h
[52] = test system: YKL103C; settings: S. cerevisiae GFP-tagged strains, 3 h
[53] = test system: YKL119C; settings: S. cerevisiae GFP-tagged strains, 3 h
[54] = test system: YKR039W; settings: S. cerevisiae GFP-tagged strains, 3 h
[55] = test system: YKR093W; settings: S. cerevisiae GFP-tagged strains, 3 h
[56] = test system: YKR094C; settings: S. cerevisiae GFP-tagged strains, 3 h
[57] = test system: YLL026W; settings: S. cerevisiae GFP-tagged strains, 3 h
[58] = test system: YLL039C; settings: S. cerevisiae GFP-tagged strains, 3 h
[59] = test system: YLR058C; settings: S. cerevisiae GFP-tagged strains, 3 h
[60] = test system: YLR109W; settings: S. cerevisiae GFP-tagged strains, 3 h
[61] = test system: YLR142W; settings: S. cerevisiae GFP-tagged strains, 3 h
[62] = test system: YLR185W; settings: S. cerevisiae GFP-tagged strains, 3 h
[63] = test system: YLR237W; settings: S. cerevisiae GFP-tagged strains, 3 h
[64] = test system: YLR287C-A; settings: S. cerevisiae GFP-tagged strains, 3 h
[65] = test system: YLR367W; settings: S. cerevisiae GFP-tagged strains, 3 h
[66] = test system: YML004C; settings: S. cerevisiae GFP-tagged strains, 3 h
[67] = test system: YML026C; settings: S. cerevisiae GFP-tagged strains, 3 h
[68] = test system: YML034W; settings: S. cerevisiae GFP-tagged strains, 3 h
[69] = test system: YML063W; settings: S. cerevisiae GFP-tagged strains, 3 h
[70] = test system: YML128C; settings: S. cerevisiae GFP-tagged strains, 3 h
[71] = test system: YMR105C; settings: S. cerevisiae GFP-tagged strains, 3 h
[72] = test system: YMR120C; settings: S. cerevisiae GFP-tagged strains, 3 h
[73] = test system: YMR251W-A; settings: S. cerevisiae GFP-tagged strains, 3 h
[74] = test system: YMR307W; settings: S. cerevisiae GFP-tagged strains, 3 h
[75] = test system: YNL015W; settings: S. cerevisiae GFP-tagged strains, 3 h
[76] = test system: YNL068C; settings: S. cerevisiae GFP-tagged strains, 3 h
[77] = test system: YNL112W; settings: S. cerevisiae GFP-tagged strains, 3 h
[78] = test system: YNL142W; settings: S. cerevisiae GFP-tagged strains, 3 h
[79] = test system: YNL214W; settings: S. cerevisiae GFP-tagged strains, 3 h
[80] = test system: YNR001C; settings: S. cerevisiae GFP-tagged strains, 3 h
[81] = test system: YOL052C-A; settings: S. cerevisiae GFP-tagged strains, 3 h
[82] = test system: YOR038C; settings: S. cerevisiae GFP-tagged strains, 3 h
[83] = test system: YOR063W; settings: S. cerevisiae GFP-tagged strains, 3 h
[84] = test system: YOR136W; settings: S. cerevisiae GFP-tagged strains, 3 h
[85] = test system: YOR173W; settings: S. cerevisiae GFP-tagged strains, 3 h
[86] = test system: YOR182C; settings: S. cerevisiae GFP-tagged strains, 3 h
[87] = test system: YOR371C; settings: S. cerevisiae GFP-tagged strains, 3 h
[88] = test system: YOR375C; settings: S. cerevisiae GFP-tagged strains, 3 h
[89] = test system: YPL111W; settings: S. cerevisiae GFP-tagged strains, 3 h
[90] = test system: YPL131W; settings: S. cerevisiae GFP-tagged strains, 3 h
[91] = test system: YPL150W; settings: S. cerevisiae GFP-tagged strains, 3 h
[92] = test system: YPL220W; settings: S. cerevisiae GFP-tagged strains, 3 h
[93] = test system: YPL265W; settings: S. cerevisiae GFP-tagged strains, 3 h
[94] = test system: YPR132W; settings: S. cerevisiae GFP-tagged strains, 3 h
[95] = test system: YPR145W; settings: S. cerevisiae GFP-tagged strains, 3 h
[96] = test system: YPR184W; settings: S. cerevisiae GFP-tagged strains, 3 h

Measured: GFP ratio to DMSO

CNc1nc(N)c([N+](=O)[O-])c(Nc2ccccc2OC)n1
active: [2] 0.645 | [4] 1.71 | [5] 3.23 | [10] 0.541 | [12] 0.302 | [15] 0.503 | [16] 0.349 | [17] 2.04 | [18] 5.92 | [20] 0.535 | [23] 0.632 | [24] 2.43 | [27] 0.381 | [28] 0.642 | [29] 0.643 | [34] 0.607 | [38] 0.649 | [39] 1.71 | [45] 0.379 | [49] 7.28 | [55] 0.526 | [58] 0.576 | [59] 0.606 | [60] 0.271 | [63] 3.5 | [64] 0.309 | [67] 1.64 | [69] 0.482 | [72] 0.433 | [73] 0.286 | [75] 1.84 | [81] 2.31 | [86] 3.17 | [92] 0.579 | [93] 0.542 | [94] 1.76
inactive: [1] 0.804 | [3] 0.668 | [6] 0.664 | [7] 0.657 | [8] 0.723 | [9] 0.707 | [11] 0.783 | [13] 0.703 | [14] 0.742 | [19] 0.721 | [21] 0.998 | [22] 0.904 | [25] 0.745 | [26] 0.819 | [30] 0.915 | [31] 1.01 | [32] 0.902 | [33] 0.679 | [35] 0.767 | [36] 0.737 | [37] 0.726 | [40] 1.25 | [41] 0.68 | [42] 0.792 | [43] 0.829 | [44] 0.669 | [46] 0.693 | [47] 0.717 | [48] 0.664 | [50] 0.822 | [51] 0.777 | [52] 0.755 | [53] 0.774 | [54] 1.41 | [56] 0.863 | [57] 0.761 | [61] 0.7 | [62] 1.38 | [65] 0.847 | [66] 0.689 | [68] 0.676 | [70] 0.697 | [71] 0.849 | [74] 0.757 | [76] 0.738 | [77] 0.867 | [78] 0.756 | [79] 0.786 | [80] 0.75 | [82] 0.771 | [83] 0.813 | [84] 0.793 | [85] 0.726 | [87] 0.67 | [88] 0.81 | [89] 0.779 | [90] 0.657 | [91] 0.677 | [95] 0.81 | [96] 0.669
